Measured values reported in patent publication US20220144812A1, “QUINOLINE DERIVATIVES AND THEIR USE FOR THE TREATMENT OF CANCER” (Epizyme, Inc., priority 2019, published 2022).

Legend:
[1] = system: 647V cells; assay: High throughput proliferation (HTP) assay; type: cell-based; settings: Homo sapiens, 647-V, high throughput proliferation; read-out: CREBBP HTP IC50
How it was run: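 Proliferation IC50 (micromolar) derived from a 7-day CellTiter-Glo viable-cell readout in 647V cells exposed, in triplicate, to rising compound concentrations; cells grown in DMEM plus 15% heat-inactivated FBS at 37° C under 5% CO2.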

[2] = molecular target: T1, EP300 (P300(1048-1664)) (Homo sapiens, UniProt Q09472); assay: Biochemical assay for EP300, SAMDI; settings: EP300, SAMDI; read-out: EP300 Biochemistry IC50
T1 construct: P300(1048-1664)
T1 sequence (Q09472 1048-1664): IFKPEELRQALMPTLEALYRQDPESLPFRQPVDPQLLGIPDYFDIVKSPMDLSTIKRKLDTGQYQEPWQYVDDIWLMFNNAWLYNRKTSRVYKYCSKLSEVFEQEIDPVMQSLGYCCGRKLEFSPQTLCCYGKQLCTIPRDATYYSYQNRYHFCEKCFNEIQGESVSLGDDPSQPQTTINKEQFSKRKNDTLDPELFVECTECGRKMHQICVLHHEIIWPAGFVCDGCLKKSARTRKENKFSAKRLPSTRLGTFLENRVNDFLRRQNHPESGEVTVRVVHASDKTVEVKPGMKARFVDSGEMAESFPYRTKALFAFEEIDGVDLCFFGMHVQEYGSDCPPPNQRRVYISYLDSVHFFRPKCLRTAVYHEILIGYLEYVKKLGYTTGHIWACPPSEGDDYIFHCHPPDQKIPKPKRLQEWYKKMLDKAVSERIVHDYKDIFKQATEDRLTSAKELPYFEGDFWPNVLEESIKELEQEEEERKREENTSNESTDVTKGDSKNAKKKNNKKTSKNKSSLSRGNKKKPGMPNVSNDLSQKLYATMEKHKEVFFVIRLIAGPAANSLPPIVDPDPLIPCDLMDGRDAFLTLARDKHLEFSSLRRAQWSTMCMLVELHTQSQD
From the text: The following example describes materials and methods relating to a biochemical assay for EP300. IC50 values (micromolar (μM)) are summarized in Table 1, Table 2, and Table 3 under the column labeled: “EP300 Biochemistry IC50 (micromolar).”

[3] = system: H3K18Ac in HB-CLS-2 cells; assay: H3K18AC in-cell western (ICW) assay; type: cell-based; settings: H3K18Ac in-cell western; read-out: CREBBP ICW IC50
How it was run: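 In-cell western: after methanol fixation, blocking, overnight 4° C anti-H3K18Ac staining, then 800CW secondary plus DRAQ5 for DNA content, integrated intensities were scanned at 800 and 700 nm. Before this, compound exposure lasted 2 hr at 37° C in HB-CLS-2 cells plated 16–24 hours earlier. Values expressed as IC50 (μM).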

[4] = molecular target: T2, CREBBP (1084-1701) (Homo sapiens, UniProt Q92793); assay: Biochemical assay for CREBBP (1084-1701), SAMDI; settings: SAMDI, read-out: CREBBP Biochemistry IC50
T2 construct: measured in the following biochemical assay using CREBBP (1084-1701); purchased
How it was run: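 Acetyltransferase activity measured by SAMDI mass spectrometry after capture on biochip. Enzyme sat with compound 30 min at RT before acetyl-CoA and biotinylated H3 11-25 (K14R, K23R) peptide were added for 30 min at RT. Formic acid quench, bicarbonate neutralisation; IC50 values reported.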

T2 sequence (Q92793 1084-1701): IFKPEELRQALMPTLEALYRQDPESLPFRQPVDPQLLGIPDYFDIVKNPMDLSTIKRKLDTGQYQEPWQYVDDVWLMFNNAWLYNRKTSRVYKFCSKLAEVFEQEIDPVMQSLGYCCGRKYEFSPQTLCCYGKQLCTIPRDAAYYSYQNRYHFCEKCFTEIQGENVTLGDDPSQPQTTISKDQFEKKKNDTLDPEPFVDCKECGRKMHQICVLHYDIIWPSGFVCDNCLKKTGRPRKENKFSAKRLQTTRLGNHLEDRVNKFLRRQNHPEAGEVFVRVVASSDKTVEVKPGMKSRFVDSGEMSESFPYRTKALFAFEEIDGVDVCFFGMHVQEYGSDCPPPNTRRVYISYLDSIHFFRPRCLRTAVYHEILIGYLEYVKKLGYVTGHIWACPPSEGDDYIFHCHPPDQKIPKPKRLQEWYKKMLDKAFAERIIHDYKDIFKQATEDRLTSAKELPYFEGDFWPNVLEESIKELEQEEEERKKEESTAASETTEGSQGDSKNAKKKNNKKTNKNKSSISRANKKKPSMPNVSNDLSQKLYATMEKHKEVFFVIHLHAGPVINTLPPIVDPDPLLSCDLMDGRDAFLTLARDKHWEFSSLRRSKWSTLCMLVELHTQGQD

Structure (SMILES) | IC50 [1] | IC50 [2] | IC50 [3] | IC50 [4]
CCc1ncc(CN(C)C(=O)c2cc(-c3ccc(NC4CCOCC4)c(C)n3)nc3ccc(Cl)cc23)n1C [Compound 517] | 107 nM | 12.1 nM | 159 nM | 36.1 nM
CCn1ncc(CN(C)C(=O)c2cc(-c3cc4c(N)n[nH]c4c(C)n3)nc3ccc(Cl)cc23)c1C [Compound 519] | 326 nM | 107 nM | 253 nM | 31.4 nM
CCn1ncc(CN(C)C(=O)c2cc(-c3cc(C(=O)NC)n(C)n3)nc3ccc(COC)cc23)c1C [Compound 520] | 650 nM | 23.8 nM | 334 nM | 80.7 nM
CCn1ncc(CN(C)C(=O)c2cc(-c3ccc(NCCO)c(C)n3)nc3ccc(Cl)cc23)c1C [Compound 521] | 110 nM | 7.1 nM | 80.4 nM | 10 nM
CCn1ncc(CN(C)C(=O)c2nc(-c3nc4c[nH]nc4cc3C)nc3ccc(Cl)cc23)c1C [Compound 522] | 8060 nM | 16600 nM | 16600 nM | 26000 nM
CCc1ncc(CN(C)C(=O)c2nc(-c3cc(Cl)c4[nH]cnc4c3)nc3ccc(COC)cc23)n1C [Compound 523] | 34.7 nM | 2.7 nM | 74.1 nM | 6.22 nM
CCn1ncc(CN(C)C(=O)c2nc(-c3cc(C)c4c(N)n[nH]c4c3)nc3ccc(COC)cc23)c1C [Compound 524] | 163 nM | 4 nM | 81.4 nM | 16 nM
CCn1ncc(CN(C)C(=O)c2cc(-c3cnc(NCCNC)c(C)n3)nc3ccc(Cl)cc23)c1C [Compound 525] | 313 nM | 142 nM | 260 nM | 54 nM
CCc1ncc(CN(C)C(=O)c2nc(-c3cc(C)c4c(N)[nH]nc4c3)nc3ccc(Cl)cc23)n1C [Compound 526] | 72 nM | 2 nM | 46.5 nM | 6.42 nM
CCc1ncc(CN(C)C(=O)c2nc(-c3cc(C)nc(NCCNC)c3)nc3ccc(COC)cc23)n1C [Compound 527] | 295 nM | 21.2 nM | 798 nM | 67.2 nM
CCn1ncc(CN(C)C(=O)c2nc(-c3cc4[nH]ncc4nc3C)nc3ccc(Cl)cc23)c1C [Compound 528] | 1110 nM | 1050 nM | 603 nM | 1060 nM
CCn1ncc(CN(C)C(=O)c2cc(-c3ccc(NCCNS(C)(=O)=O)c(C)n3)nc3ccc(Cl)cc23)c1C [Compound 529] | 238 nM | 10.4 nM | 137 nM | 20.7 nM
CCn1ncc(CN(C)C(=O)c2cc(-c3cc4[nH]cnc4c(C)n3)nc3ccc(COC)cc23)c1C [Compound 530] | 248 nM | 12.5 nM | 154 nM | 50.3 nM
CCn1ncc(CN(C)C(=O)c2cc(-c3cc(N[C@@H]4CCNC4)cc(C)n3)nc3ccc(Cl)cc23)c1C [Compound 531] | 88.9 nM | 6.3 nM | 350 nM | 29.9 nM
CCn1ncc(CN(C)C(=O)c2nc(-c3ccc4n[nH]c(N)c4c3)nc3ccc(Cl)cc23)c1C [Compound 532] | 288 nM | 15.4 nM | 158 nM | 17.3 nM
CCn1ncc(C(C)N(C)C(=O)c2cc(-c3ccc(NCCNC)c(C)n3)nc3ccc(Cl)cc23)c1C (stereo not shown) [Compound 533] | 79.6 nM | 32.4 nM | 159 nM | 183 nM
CCn1ncc(CN(C)C(=O)c2cc(-c3ccc(NCC(F)(F)CNC)c(C)n3)nc3ccc(Cl)cc23)c1C [Compound 534] | 228 nM | 9.1 nM | 171 nM | 32.4 nM

Structure (SMILES) | IC50 [1] | IC50 [2] | IC50 [3] | IC50 [4]
CCn1ncc(CN(C)C(=O)c2nc(-c3cc4c(N)n[nH]c4cc3C)nc3ccc(Br)cc23)c1C [Compound 535] | 58.1 nM | 4.1 nM | 58.3 nM | 12 nM
CCn1ncc(CN(C)C(=O)c2cc(-c3ccc(NC4CNCC4(F)F)c(C)n3)nc3ccc(Cl)cc23)c1C (stereo not shown) [Compound 538] | 1730 nM | 88.6 nM | 1060 nM | 88.7 nM
CCn1ncc(CN(C)C(=O)c2nc(-c3cc(C)cc(NC4CNC(=O)C4)c3)nc3ccc(Cl)cc23)c1C (stereo not shown) [Compound 539] | 1340 nM | 26.2 nM | 714 nM | 30.4 nM
CNCCNc1ccc(-c2cc(C(=O)N(C)Cc3cnc(C4CC4)n3C)c3cc(Cl)ccc3n2)nc1C [Compound 540] | 23.3 nM | 6.1 nM | 82.8 nM | 20.5 nM
CCc1ncc(CN(C)C(=O)c2cc(-c3cc(-c4ncc[nH]4)n(C)n3)nc3ccc(Cl)cc23)n1C [Compound 541] | 85.4 nM | 2.7 nM | 104 nM | 11.2 nM
CCn1ncc(CN(C)C(=O)c2cc(-c3cc(-c4ncc[nH]4)n(C)n3)nc3ccc(Cl)cc23)c1C [Compound 542] | 56.6 nM | 2.4 nM | 53.5 nM | 6.92 nM
CNCCNc1ccc(-c2cc(C(=O)N(C)Cc3cncn3C)c3cc(Cl)ccc3n2)nc1C [Compound 543] | 2260 nM | 8960 nM | 6820 nM | 8540 nM
CNCCNc1ccc(-c2cc(C(=O)N(C)Cc3cnc(C(C)C)n3C)c3cc(Cl)ccc3n2)nc1C [Compound 544] | 42.5 nM | 6 nM | 124 nM | 14.6 nM
CCc1ncc(CN(C)C(=O)c2nc(-c3cc(N)c4c[nH]nc4c3)nc3ccc(Cl)cc23)n1C [Compound 546] | 96.4 nM | 33.7 nM | 113 nM | 13.7 nM
CCn1ncc(CN(C)C(=O)c2cc(-c3cc(NC4CNC4)cc(C)n3)nc3ccc(Cl)cc23)c1C [Compound 547] | 105 nM | 12.5 nM | 550 nM | 23.8 nM
CCc1onc(CN(C)C(=O)c2cc(-c3ccc(NCCNC)c(C)n3)nc3ccc(Cl)cc23)c1C [Compound 548] | 1860 nM | 2160 nM | 2150 nM | 2020 nM
CCc1ncc(CN(C)C(=O)c2cc(-c3ccc(NC4CN(C(C)=O)C4)c(C)n3)nc3ccc(Cl)cc23)n1C [Compound 549] | 150 nM | 12.4 nM | 240 nM | 34.9 nM
CCn1ncc(CN(C)C(=O)c2cc(-c3cc(-c4ncc[nH]4)n(C)n3)nc3ccc(COC)cc23)c1C [Compound 550] | 247 nM | 14.1 nM | 128 nM | 32.2 nM
CCn1ncc(CN(C)C(=O)c2nc(-c3cc(NC)c4cn[nH]c4c3)nc3ccc(Cl)cc23)c1C [Compound 551] | 233 nM | 137 nM | 153 nM | 27 nM
CCn1ncc(CN(C)C(=O)c2nc(-c3cc(C)nc(N[C@@H]4CCNC4)c3)nc3ccc(Cl)cc23)c1C [Compound 552] | 72.2 nM | 6.3 nM | 49.7 nM | 13.4 nM
CCn1ncc(CN(C)C(=O)c2cc(-c3ccc(NCCNC)c(C)n3)nc3ccc(Cl)cc23)c1C1CC1 [Compound 553] | 763 nM | 535 nM | 466 nM | 52.5 nM
CCn1ncc(CN(C)C(=O)c2nc(-c3cc(C)cc(NC4CNCC4(F)F)c3)nc3ccc(Cl)cc23)c1C (stereo not shown) [Compound 554] | 1670 nM | 173 nM | 1070 nM | 53.5 nM
